According to patent publication US7135466B2 (Kirin Beer Kabushiki Kaisha, priority 1999, dated 2006):
Where two headings read alike, the source gives them in different places.

Key:
PDGF-Ra = molecular target: T1, PDGF-Ra (Homo sapiens, UniProt P16234); assay: Inhibitory activity against PDGF-Ra phosphorylation by PDGF-AA stimulation using G292; format: cell-based; conditions: for IC50: > means inhibition at indicated concentration not more than 50%, < and << not less than 50%, read-out: PDGF (E) IC50; for inhibition at 0.1 µM: G292, at 100 nM, read-out: PDGF (E) inhibition (%) at 100 nM
T1 construct: host or cells: G-292 human osteosarcoma cells
In short: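 Cells seeded in low-serum medium are exposed to test compound for one hour, then PDGF-AA (50 ng/ml) triggers receptor phosphorylation for 5 min at 37 °C. Phospho-PDGF-Ra in solubilized cells is quantified by anti-phosphotyrosine capture ELISA at 450 nm.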

c-kit = molecular target: T2, c-kit (Homo sapiens, UniProt P10721); assay: Inhibitory activity against c-kit autophosphorylation (MO7e cells, h-SCF); format: cell-based; conditions: for IC50: MO7e cells, read-out: c-kit IC50; for inhibition at 1 µM: Mo7e, at 1000 nM
T2 construct: MO7e (human megakaryocytic leukemia cell line) which had been arrested for 20 hr; endogenous in cells; host or cells: MO7e human megakaryocytic leukemia cell line
In short: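 MO7e human megakaryocytic leukemia cells, arrested 20 hr, treated with compound 1 hr, then stimulated with 50 ng/ml h-SCF for 5 min and lysed. Lysates captured on immobilized anti-phosphotyrosine antibody, detected with anti-c-kit primary and HRP secondary antibody; absorbance at 450 nm.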

[1] = figure within parentheses in −( ) or >1000( )

T2 sequence (P10721 26-976): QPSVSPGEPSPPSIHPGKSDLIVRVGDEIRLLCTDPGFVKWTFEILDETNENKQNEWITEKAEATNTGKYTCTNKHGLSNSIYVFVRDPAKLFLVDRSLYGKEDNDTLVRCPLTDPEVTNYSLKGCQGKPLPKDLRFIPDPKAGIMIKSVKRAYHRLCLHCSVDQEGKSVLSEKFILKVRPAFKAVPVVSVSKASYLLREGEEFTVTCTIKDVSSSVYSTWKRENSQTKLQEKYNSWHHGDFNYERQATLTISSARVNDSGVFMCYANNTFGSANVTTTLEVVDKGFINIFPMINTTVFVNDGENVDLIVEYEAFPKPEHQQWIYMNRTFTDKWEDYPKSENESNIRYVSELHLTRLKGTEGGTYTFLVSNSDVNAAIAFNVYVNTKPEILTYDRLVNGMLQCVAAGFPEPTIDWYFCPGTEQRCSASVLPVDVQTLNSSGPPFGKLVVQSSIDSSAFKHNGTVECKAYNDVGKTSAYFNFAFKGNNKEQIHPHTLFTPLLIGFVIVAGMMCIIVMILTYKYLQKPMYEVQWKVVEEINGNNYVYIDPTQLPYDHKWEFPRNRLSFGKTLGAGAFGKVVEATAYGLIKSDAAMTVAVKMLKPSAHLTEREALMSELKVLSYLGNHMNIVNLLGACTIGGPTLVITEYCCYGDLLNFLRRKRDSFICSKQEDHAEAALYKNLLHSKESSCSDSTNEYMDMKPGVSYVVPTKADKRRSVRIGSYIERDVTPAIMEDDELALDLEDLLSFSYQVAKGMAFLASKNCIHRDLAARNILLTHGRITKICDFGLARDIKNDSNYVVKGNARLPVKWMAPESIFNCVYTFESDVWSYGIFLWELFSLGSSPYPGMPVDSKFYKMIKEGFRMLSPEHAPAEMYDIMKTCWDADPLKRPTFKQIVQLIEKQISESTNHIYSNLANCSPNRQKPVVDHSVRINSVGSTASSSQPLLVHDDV
T1 sequence (P16234 24-1089): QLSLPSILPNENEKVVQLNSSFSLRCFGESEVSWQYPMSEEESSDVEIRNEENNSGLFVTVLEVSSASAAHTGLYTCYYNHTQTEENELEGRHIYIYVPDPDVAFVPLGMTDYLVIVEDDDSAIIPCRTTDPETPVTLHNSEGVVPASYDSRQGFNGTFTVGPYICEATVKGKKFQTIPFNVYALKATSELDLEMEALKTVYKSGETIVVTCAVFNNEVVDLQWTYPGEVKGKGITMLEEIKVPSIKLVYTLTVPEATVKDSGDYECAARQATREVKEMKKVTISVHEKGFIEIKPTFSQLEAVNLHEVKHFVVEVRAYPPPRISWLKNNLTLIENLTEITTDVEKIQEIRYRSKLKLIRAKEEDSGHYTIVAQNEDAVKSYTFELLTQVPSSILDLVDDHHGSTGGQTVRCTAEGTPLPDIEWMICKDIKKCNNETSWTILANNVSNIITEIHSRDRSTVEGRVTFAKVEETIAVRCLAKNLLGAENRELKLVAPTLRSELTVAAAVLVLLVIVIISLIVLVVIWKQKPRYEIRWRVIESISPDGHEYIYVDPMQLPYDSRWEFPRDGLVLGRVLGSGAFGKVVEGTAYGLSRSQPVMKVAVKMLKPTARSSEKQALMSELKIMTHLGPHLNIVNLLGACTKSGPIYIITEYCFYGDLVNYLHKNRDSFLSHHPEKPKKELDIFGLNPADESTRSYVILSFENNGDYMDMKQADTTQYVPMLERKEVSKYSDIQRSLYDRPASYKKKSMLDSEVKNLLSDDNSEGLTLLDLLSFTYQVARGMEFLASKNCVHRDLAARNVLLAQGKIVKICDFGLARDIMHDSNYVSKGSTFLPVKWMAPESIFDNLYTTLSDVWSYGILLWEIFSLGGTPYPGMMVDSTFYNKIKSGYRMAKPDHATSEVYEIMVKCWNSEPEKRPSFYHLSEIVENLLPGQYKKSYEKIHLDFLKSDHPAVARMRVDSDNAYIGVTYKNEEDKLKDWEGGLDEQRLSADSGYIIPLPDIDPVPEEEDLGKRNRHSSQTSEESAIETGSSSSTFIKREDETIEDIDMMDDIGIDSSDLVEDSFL

Row | SMILES | IC50 (PDGF-Ra) [nM] | IC50 (PDGF-Ra; Pharmacological Test Example 1) [nM] | IC50 (c-kit; h-SCF 50 ng/ml) [nM] | other results
1 | COc1cc(Oc2ncnc3cc(OC)c(OC)cc23)ccc1NC(=O)NC1CCN(Cc2ccccc2)CC1 [Example 641, N-(1-Benzyl-4-piperidyl)-N′-{4-[(6,7-dimethoxy-4-quinazolinyl)oxy]-2-methoxyphenyl}urea] | 28 | – | – | IC50 (c-kit; 50 ng/ml h-SCF): 293 nM
2 | COc1cc2nccc(Oc3ccc(NC(=O)OCCCOc4ccccc4OC)c(C)c3C)c2cc1OC [Example 158, 3-(2-Methoxyphenoxy)propyl N-{4-[(6,7-dimethoxy-4-quinolyl)oxy]-2,3-dimethylphenyl}carbamate] | – | 12 | 107 | –
3 | CCC(CC)OC(=O)Nc1ccc(Oc2ccnc3cc(OC)c(OC)cc23)cc1 [Example 358, 1-Ethylpropyl N-{4-[(6,7-dimethoxy-4-quinolyl)oxy]phenyl}carbamate] | – | < 10 | 366 | –
4 | CCCCC(C)C(=O)NC(=S)Nc1ccc(Oc2ccnc3cc(OC)c(OC)cc23)c(Cl)c1 (stereo not drawn) [Example 1077, N-{3-Chloro-4-[(6,7-dimethoxy-4-quinolyl)oxy]phenyl}-N′-(2-methylhexanoyl)thiourea] | 48 | – | – | IC50 (c-kit; h-SCF stimulation): 379 nM
5 | CCCC(CCN1CCCCC1)OC(=O)Nc1cc(C)c(Oc2ccnc3cc(OC)c(OC)cc23)cc1C (stereo not drawn) [Example 446, 1-(2-Piperidinoethyl)butyl N-{4-[(6,7-dimethoxy-4-quinolyl)oxy]-2,5-dimethylphenyl}carbamate] | > 100 | – | – | inhibition at 0.1 µM (PDGF-Ra; figure within parentheses in >100( )): 39%; inhibition at 1 µM (c-kit; [1]): 40%
6 | COc1cc2nccc(Oc3cc(C)c(NC(=O)OCc4ccc5ccccc5c4)cc3C)c2cc1OC [Example 246, 2-Naphthylmethyl N-{4-[(6,7-dimethoxy-4-quinolyl)oxy]-2,5-dimethylphenyl}carbamate] | – | 58 | 243 | –
7 | COc1cc2ncnc(Oc3ccc(NC(=S)NC(=O)CCCc4ccccc4)cc3)c2cc1OC [Example 1139, N-{4-[(6,7-Dimethoxy-4-quinazolinyl)oxy]phenyl}-N′-(4-phenylbutanoyl)thiourea] | 12 | – | – | IC50 (c-kit; h-SCF stimulation): 783 nM
8 | COc1cc2nccc(Oc3ccc(NC(=O)OC4CCCCCC4)c(C)c3C)c2cc1OC [Example 288, Cycloheptyl N-{4-[(6,7-dimethoxy-4-quinolyl)oxy]-2,3-dimethylphenyl}carbamate] | – | < 10 | 162 | –
9 | COc1cc2nccc(Oc3ccc(NC(=O)OC4CCCC4)c(C)c3C)c2cc1OC [Example 365, Cyclopentyl N-{4-[(6,7-dimethoxy-4-quinolyl)oxy]-2,3-dimethylphenyl}carbamate] | – | < 10 | 47 | –
10 | COc1cc2nccc(Oc3ccc(NC(=S)NC(=O)c4ccc(CCl)cc4)cc3F)c2cc1OC [Example 1000, N-[4-(Chloromethyl)benzoyl]-N′-{4-[(6,7-dimethoxy-4-quinolyl)oxy]-3-fluorophenyl}thiourea] | 3 | – | – | IC50 (c-kit; h-SCF stimulation): 771 nM
11 | COc1cc2ncnc(Oc3ccc(N(C)C(=O)OCc4ccccc4C)c(Cl)c3)c2cc1OC [Example 479, 2-Methylbenzyl N-{2-chloro-4-[(6,7-dimethoxy-4-quinazolinyl)oxy]phenyl}-N-methylcarbamate] | 13 | – | – | inhibition at 1 µM (c-kit; [1]): 17%
12 | COc1cc2nccc(Oc3ccc(NC(=S)NC(=O)C4(C)CC4(Cl)Cl)cc3Cl)c2cc1OC (stereo not drawn) [Example 750, N-{3-Chloro-4-[(6,7-dimethoxy-4-quinolyl)oxy]phenyl}-N′-[(2,2-dichloro-1-methylcyclopropyl)carbonyl]thiourea] | 17 | – | – | inhibition at 1 µM (c-kit; [1]): 43%
13 | CCN(CCNC(=O)Nc1ccc(Oc2ccnc3cc(OC)c(OC)cc23)cc1)c1cccc(C)c1 [Example 661, N-{4-[(6,7-Dimethoxy-4-quinolyl)oxy]phenyl}-N′-[2-(ethyl-3-methylanilino)ethyl]urea] | < 10 | – | – | IC50 (c-kit; 50 ng/ml h-SCF): 75 nM
14 | COc1cc2ncnc(Oc3ccc(NC(=O)OCCCOc4cccc(Cl)c4)c(C)c3C)c2cc1OC [Example 212, 3-(3-Chlorophenoxy)propyl N-{4-[(6,7-dimethoxy-4-quinazolinyl)oxy]-2,3-dimethylphenyl}carbamate] | – | 28 | 70 | –
15 | COc1cc2ncnc(Oc3ccc(NC(=O)NCCN4CCOCC4)c([N+](=O)[O-])c3)c2cc1OC [Example 652, N-{4-[(6,7-Dimethoxy-4-quinazolinyl)oxy]-2-nitrophenyl}-N′-(2-morpholinoethyl)urea] | 43 | – | – | IC50 (c-kit; 50 ng/ml h-SCF): 115 nM

The next lines start with results.

Row | IC50 (PDGF-Ra) [nM] | IC50 (PDGF-Ra; Pharmacological Test Example 1) [nM] | IC50 (c-kit; h-SCF 50 ng/ml) [nM] | SMILES | other results
16 | 26 | – | – | CCCCCC(=O)NC(=S)Nc1ccc(Oc2ncnc3cc(OC)c(OC)cc23)cc1 [Example 1189, N-{4-[(6,7-Dimethoxy-4-quinazolinyl)oxy]phenyl}-N′-hexanoylthiourea] | IC50 (c-kit; h-SCF stimulation): 73 nM
17 | 23 | – | – | COc1cc2nccc(Oc3ccc(NC(=S)NC(=O)c4ccc(C)s4)cc3)c2cc1OC [Example 1146, N-{4-[(6,7-Dimethoxy-4-quinolyl)oxy]phenyl}-N′-[(5-methyl-2-thienyl)carbonyl]thiourea] | IC50 (c-kit; h-SCF stimulation): 552 nM
18 | < 3 | – | – | COc1cc2nccc(Oc3ccc(OCCCOc4ccc(C)cc4)cc3)c2cc1OC [Example 790, 6,7-Dimethoxy-4-{4-[3-(4-methylphenoxy)propoxy]phenoxy}quinoline] | IC50 (c-kit; 50 ng/ml h-SCF): 107 nM
19 | 27 | – | – | COc1cc2nccc(Oc3ccc(OCCCOc4cccc(F)c4)cc3)c2cc1OC [Example 797, 4-{4-[3-(3-Fluorophenoxy)propoxy]phenoxy}-6,7-dimethoxyquinoline] | IC50 (c-kit; 50 ng/ml h-SCF): 403 nM
20 | 15 | – | – | CCCC(CCN(CC)CC)OC(=O)Nc1ccc(Oc2ccnc3cc(OC)c(OC)cc23)c(C)c1C (stereo not drawn) [Example 443, 1-[2-(Diethylamino)ethyl]butyl N-{4-[(6,7-dimethoxy-4-quinolyl)oxy]-2,3-dimethylphenyl}carbamate] | IC50 (c-kit; 50 ng/ml h-SCF): 627 nM
21 | > 100 | – | – | CCOCCC(=O)NC(=S)Nc1ccc(Oc2ccnc3cc(OC)c(OC)cc23)c(Cl)c1 [Example 1071, N-{3-Chloro-4-[(6,7-dimethoxy-4-quinolyl)oxy]phenyl}-N′-(3-ethoxypropanoyl)thiourea] | inhibition at 0.1 µM (PDGF-Ra; figure in parentheses in >100( )): 17%; inhibition at 1 µM (c-kit; figure in parentheses in −( )): 0%
22 | < 10 | – | – | COc1cccc(OCCCOc2ccc(Oc3ncnc4cc(OC)c(OC)cc34)cc2)c1 [Example 809, 6,7-Dimethoxy-4-{4-[3-(3-methoxyphenoxy)propoxy]phenoxy}quinazoline] | IC50 (c-kit; h-SCF stimulation): 73 nM
23 | < 10 | – | – | COc1cc2nccc(Oc3ccc(NC(=S)NCc4ccccc4)cc3Cl)c2cc1OC [Example 706, N-Benzyl-N′-{3-chloro-4-[(6,7-dimethoxy-4-quinolyl)oxy]phenyl}thiourea] | IC50 (c-kit; 50 ng/ml h-SCF): 227 nM
24 | – | < 10 | 178 | COc1cccc(OCCCOC(=O)Nc2ccc(Oc3ccnc4cc(OC)c(OC)cc34)cc2)c1 [Example 161, 3-(3-Methoxyphenoxy)propyl N-{4-[(6,7-dimethoxy-4-quinolyl)oxy]phenyl}carbamate] | –
25 | – | < 10 | 254 | COc1cc2nccc(Oc3ccc(NC(=O)OC(C)c4cccc(F)c4)cc3)c2cc1OC (stereo not drawn) [Example 97, 1-(3-Fluorophenyl)ethyl N-{4-[(6,7-dimethoxy-4-quinolyl)oxy]phenyl}carbamate] | –
26 | – | < 10 | 66 | COc1cc2ncnc(Oc3ccc(NC(=O)OCCC4CCCCC4)cc3)c2cc1OC [Example 356, 2-Cyclohexylethyl N-{4-[(6,7-dimethoxy-4-quinazolinyl)oxy]phenyl}carbamate] | –
